Measured values reported in patent US10799597B2, “Subcutaneous administration of antibody-drug conjugates for cancer therapy” (Immunomedics, Inc., priority 2017, dated 2020).
Where “and” joins values, the source holds several entries; their conditions need not be identical. Equal values may be shown once.

How the values were obtained:
[1] = tested on: human urinary bladder carcinoma (5637); assay: Efficacy of i.v. vs. s.c. IMMU-132 in 5637 bladder carcinoma xenografts; assay type: in vivo, athymic nude mice; details: for mean tumor volume: day 82; for mice still alive on day 82: N=5; for median survival time (MST): post-therapy initiation
Method: 5637 cells were expanded in tissue culture and harvested with trypsin/EDTA. Female athymic nude mice were injected s.c. with 200 μL of 5637 cell suspension mixed 1:1 with matrigel such that 1×10^7 cells was administered to each mouse. Once tumors reached approximately 0.25 cm^3 in size (15 days later), the animals were divided up into three different treatment groups of 4-5 mice each. For the i.v. injections (N=5), mice receive 500 μg i.v. twice a week for four weeks. […] A final group of mice received only saline (N=4) and served as the untreated control. Tumors were measured and mice weighed twice a week. Mice were euthanized for disease progression if their tumor volumes exceeded 1.0 cm^3 in size.

[2] = assay type: in vivo, human
Method: SN-38 was measured by HPLC.

[3] = tested on: triple-negative breast cancer; assay: Subcutaneous IMMU-132 in triple-negative breast cancer patients (Example 10); assay type: in vivo, human
Method: Maintenance doses of ADC are administered i.v. or s.c. every two to three weeks or monthly after induction. Alternatively, induction may occur with two to four cycles of i.v. administration at 8-10 mg/kg (each cycle with ADC administration on Days 1 and 8 of two 21-day cycles with a one-week rest period in between), followed by s.c. administration as active dosing one or more times weekly or as maintenance therapy. Dosing may be adjusted based on interim tumor scans and/or by analysis of Trop-2 positive circulating tumor cells.

[4] = tested on: BxPC-3; assay: Signaling events (p21Waf1/Cip1, p53) in BxPC-3 cells; assay type: cell-based, human
Text: (§1) SN-38 is known to activate several signaling pathways in cells, leading to apoptosis (e.g., Cusack et al., 2001, Cancer Res 61:3535-40; Liu et al. 2009, Cancer Lett 274:47-53; Lagadec et al., 2008, Br J Cancer 98:335-44). Our initial studies examined the expression of 2 proteins involved in early signaling events (p21^Waf1/Cip1 and p53) and 1 late apoptotic event [cleavage of poly-ADP-ribose polymerase (PARP)] in vitro (not shown).

[5] = tested on: COLO 205 colonic adenocarcinoma xenografts; details: 0.4 mg/kg SN-38 twice weekly×4 weeks
Method: Animals were implanted subcutaneously with different human cancer cell lines. Tumor volume (TV) was determined by measurements in 2 dimensions using calipers, with volumes defined as: L×w^2/2, where L is the longest dimension of the tumor and w is the shortest. […] This dosing frequency reflected a consideration of the conjugate's serum half-life in vitro, to allow a more continuous exposure to the ADC.
Growth curves are shown as percent change in initial TV over time. Statistical analysis of tumor growth was based on area under the curve (AUC). Profiles of individual tumor growth were obtained through linear-curve modeling. An f-test was employed to determine equality of variance between groups before statistical analysis of growth curves. A 2-tailed t-test was used to assess statistical significance between the various treatment groups and controls, except for the saline control, where a 1-tailed t-test was used (significance at P≤0.05). Statistical comparisons of AUC were performed only up to the time that the first animal within a group was euthanized due to progression.

[6] = Phase I/II trial of IMMU-132: MTD and toxicity profile; assay type: in vivo, human; details: 75 patients in the full trial
Method: Patients with metastatic cancers were enrolled after failing standard therapy, starting at a dose of 8.0 mg/kg given on days 1 and 8 of a 3-week cycle.

[7] = tested on: Capan-1 pancreatic adenocarcinoma xenografts; assay: Therapy of Capan-1 tumor xenografts in nude mice; assay type: in vivo, athymic nude mice; details: 0.2 mg/kg SN-38 twice weekly×4 weeks
Method: FIG. 3C. […] Animals were treated twice weekly for 4 weeks as indicated by the arrows. Capan-1 mice (N=10) were treated with 0.2 mg/kg ADC and tumors measured weekly.
FIG. 4C. […] Capan-1 (N=10) were treated twice weekly for 4 weeks with the agents indicated.

[8] = tested on: diverse metastatic cancers; assay: Phase I/II clinical trial of IMMU-132 (Example 9): best response and TTP
Method: To optimize cumulative treatment with minimal delays, phase II is focusing on 8 and 10 mg/kg (n=30 and 14, respectively). […] [table]

[9] = Tolerability of multiple subcutaneous injections of IMMU-132 in nude mice; assay type: in vivo, female nude mice; details: s.c. 2 mg or 500 μg twice a week for four weeks
Method: One group of two mice received 2 mg injections (HED=8 mg/kg) while a second group of two animals, 500 μg (HED=2 mg/kg). For comparison, one mouse received only saline injections. Each injection (100 μL) was administered at the same location (i.e., right rear flank) twice a week for four weeks. Mice were weighed on the day of injection and the injection site examined for any signs of toxicity (i.e, rash, ulceration, etc.). If any occur, it would be documented by photographing the area. One day after the last injection, the mice were anesthetized and the injection site photographed (FIG. 12). This was repeated one week after the final injection (FIG. 13).

[10] = tested on: advanced GI cancers; assay: Phase I/II trial of IMMU-132 in patients with advanced GI cancers: best response by RECIST and time to progression; assay type: in vivo, human; details: for median TTP: SD patients
Method: Patients with metastatic cancers were enrolled after failing standard therapy, starting at a dose of 8.0 mg/kg given on days 1 and 8 of a 3-week cycle. […]

[11] = Tolerability in Cynomolgus monkeys; assay type: in vivo, Cynomolgus monkeys (Macaca fascicularis)
Method: FIG. 5C. Tolerability of hRS7-CL2A-SN-38 in Cynomolgus monkeys. […] All animals were bled on day −1, 3, and 6. Four monkeys were bled on day 11 in the 0.96 mg/kg group, 3 in the 1.92 mg/kg group. Changes in neutrophil counts in Cynomolgus monkeys.
FIG. 5D. Tolerability of hRS7-CL2A-SN-38 in Cynomolgus monkeys. […] All animals were bled on day −1, 3, and 6. Four monkeys were bled on day 11 in the 0.96 mg/kg group, 3 in the 1.92 mg/kg group. Changes in platelet counts in Cynomolgus monkeys.

[12] = Pharmacokinetics and biodistribution of 111In-labeled hRS7-CL2A-SN-38 and hRS7 IgG in nude mice bearing SK-MES-1 tumors; assay type: in vivo
Method: One group was injected intravenously with 20 μCi (250-μg protein) of ^111In-hRS7-CL2A-SN-38, whereas another group received 20 μCi (250-μg protein) of ^111In-hRS7 IgG. At various timepoints mice (5 per timepoint) were anesthetized, bled via intracardiac puncture, and then euthanized. Tumors and various tissues were removed, weighed, and counted by γ scintillation to determine the percentage injected dose per gram tissue (% ID/g). […] Pharmacokinetic analysis on blood clearance was performed using WinNonLin software (Parsight Corp.).

[13] = tested on: Calu-3; assay: Signaling events (p21Waf1/Cip1, p53) in Calu-3 cells; assay type: cell-based, human
Text: as §1

[14] = 48 assessable patients (excluding PDC)
[15] = one gastric cancer patient with SD

## IMMU-132: ADC of the humanized hRS7 anti-Trop-2 antibody conjugated by a pH-sensitive linker (CL2A) to SN-38
[1]; i.v. 500 μg twice a week for four weeks
  mean tumor volume: 0.066±0.076 cm^3
[1]; i.v.
  mice still alive on day 82: 5
  median survival time (MST): > 67 days
[1]; s.c. 500 μg twice weekly for four weeks
  mean tumor volume: 0.111±0.057 cm^3
[1]; s.c.
  mice still alive on day 82: 5
  median survival time (MST): > 67 days
[2]; ELISA
  clearance of intact conjugate vs. the IgG: cleared more quickly than the IgG
[2]; patients
  time for the conjugate to clear from the serum: ≤ 3 days
[3]; s.c.
  localized reaction at the administration site: no adverse localized reaction is observed
[3]; s.c. 2 to 4 mg/kg schedules, after two cycles of therapy
  average decrease in tumor volume: 35%
[4]
  time of p53 upregulation: ≤ 24 h
[5]
  tumor growth vs. saline and hA20-CL2A-SN-38: significantly inhibited tumor growth
[6]
  Grade 3 diarrhea: 6.7%
  Grade 3 neutropenia: 17.3%
  Grade 4 neutropenia: 2.7%
[7]
  tumor growth vs. saline and hA20-CL2A-SN-38: significantly inhibited tumor growth
[7]; day 140
  mice tumor-free at the end of the study: 50%
[8]; 13 CT-assessable PDC patients
  patients with SD: 62%
[8]; [14]
  patients with disease response (total): 79%
  patients with partial response (PR): 15%
[8]; PDC patients
  median time to progression (TTP): 12.7 wks and 11.9 wks
[9]
  skin irritation at the site of multiple injections: no evidence of skin irritation
[10]; 29 CRC patients (9 at 10 mg/kg, 20 at 8 mg/kg)
  PR (partial response) as best response by RECIST, number of patients: 1
[10]; CRC patient with PR
  target lesion change of the PR: −65%
  time to progression (TTP) for the PR: ≥ 50 wks
[10]; CRC with KRAS mutations
  median TTP: ≥ 19.1 wks
[10]; CRC, 14 SD patients (5 continuing)
  median TTP for the SD patients: ≥ 21 wks
[10]; esophageal cancer
  TTP of the PR: ≥ 30 wks
  duration of SD in individual patients: ≥ 17.4 wks and 21.9 wks and 26.3 wks and 29.9 wks
[10]; [15]
  ongoing TTP: ≥ 29 wks
  target lesion reduction: 19%
[10]; pancreatic cancer
  median TTP: 15.0 wks
[11]; 2×0.96 mg SN-38/kg, transient decreases
  blood count values: did not fall below normal ranges
[11]; cynomolgus monkey, in vivo
  MTD, human equivalent dose: 2×0.3 to 0.6
[12]; 72 hours (peak uptake)
  amount in the tumor compared with hRS7 IgG: similar
[12]; i.v., 250-μg protein
  half-life shorter than unconjugated hRS7: ~40%
[13]
  increase of p21Waf1/Cip1 expression over free SN-38: more than 2 fold
  time of p53 upregulation: ≤ 24 h
